Source: US5583138A, “17β-substituted 4-azaandrostane derivatives, pharmaceutical compositions containing them and process for preparing same” (Richter Gedeon Vegyeszeti Gyar Rt., priority 1992, dated 1996)

Molecular target: T1, steroid 5α-reductase enzyme (Homo sapiens, UniProt P31213)
T1 construct: Frozen human hyperplastic prostate was used for preparation of the enzyme; from tissue; host or cells: human hyperplastic prostate (frozen), sediment of 100000×g ultracentrifugation
T1 sequence (P31213 1-254): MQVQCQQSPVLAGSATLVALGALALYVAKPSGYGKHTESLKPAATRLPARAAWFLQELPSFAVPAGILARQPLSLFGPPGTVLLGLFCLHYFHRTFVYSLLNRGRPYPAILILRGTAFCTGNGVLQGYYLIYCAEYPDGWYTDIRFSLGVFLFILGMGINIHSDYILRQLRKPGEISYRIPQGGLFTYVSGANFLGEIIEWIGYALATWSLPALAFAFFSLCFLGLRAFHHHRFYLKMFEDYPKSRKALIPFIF
Assay: 5α-reductase inhibition: conversion of [3H]-testosterone to DHT and androstanediol by enzyme from human hyperplastic prostate
Assay type: biochemical
Details: 0.5 μM [3H]-testosterone, 500 μM NADPH, pH=5.1, 37° C., 10 minutes, read-out: IC50 (concentration decreasing the percentage conversion of testosterone by 50% in comparison to the control value)

| IC50 | Structure (SMILES) |
| --- | --- |
| 8.59 nM | CC1CCCC(C)N1C(=O)[C@H]1CC[C@H]2[C@@H]3CC[C@H]4NC(=O)C=C[C@]4(C)[C@H]3CC[C@]12C (stereo partly drawn) [17β-(2,6-dimethylpiperidinocarbonyl)-3-oxo-4-aza-5α-androst-1-ene] |
| 8.64 nM | C[C@]12C=CC(=O)N[C@@H]1CC[C@@H]1[C@@H]2CC[C@]2(C)[C@@H](C(=O)N3CCCCCCC3)CC[C@@H]12 [17β-(heptamethyleneiminocarbonyl)-3-oxo-4-aza-5α-androst-1-ene] |
| 13.1 nM | C[C@]12C=CC(=O)N[C@@H]1CC[C@@H]1[C@@H]2CC[C@]2(C)[C@@H](C(=O)N3CCCCCC3)CC[C@@H]12 [17β-(hexamethyleneiminocarbonyl)-3-oxo-4-aza-5α-androst-1-ene] |
| 18.4 nM | CC(C)(C)NC(=O)[C@H]1CC[C@H]2[C@@H]3CC[C@H]4NC(=O)C=C[C@]4(C)[C@H]3CC[C@]12C [MK-906, 17β-[N-(1,1-Dimethylethyl)carbamoyl]-3-oxo-4-aza-5α-androst-1-ene, reference compound] |
